Assay results reported in patent publication US6281344A, “Nucleic acid-protein fusion molecules and libraries” (priority 1999, dated 2001).

Target: ribosome A site
Experiment: not given
Conditions: binding the A site, accepting the growing peptide chain, and falling off the ribosome; cited from earlier work

Row | SMILES | Kd
1 | COc1ccc(C[C@H](N)C(=O)N[C@H]2[C@@H](O)[C@H](n3cnc4c(N(C)C)ncnc43)O[C@@H]2CO)cc1 [puromycin] | 100 µM

Test system: ribosome (eukaryotic peptidyl transferase / translocation) in reticulocyte lysate translation extract
Experiment: RNA-peptide fusion formation (35S Met template labeling) with the long myc template in reticulocyte lysate translation extract, effect of inhibitors
Assay type: biochemical, rabbit
Conditions: long myc template (LP154), inhibitor concentration not given, 60 min
Excerpt: To confirm that the template labeling by ^35 S Met was a consequence of translation, and more specifically resulted from the peptidyl transferase activity of the ribosome, the effect of various inhibitors on the labeling reaction was examined. The specific inhibitors of eukaryotic peptidyl transferase, anisomycin, gougerotin, and sparsomycin (Vazquez, Inhibitors of Protein Biosynthesis (Springer-Verlag, N.Y.), pp. 312 (1979)), as well as the translocation inhibitors cycloheximide and emetine (Vazquez, Inhibitors of Protein Biosynthesis (Springer-Verlag, N.Y.), pp. 312 (1979)) all decreased RNA-peptide fusion formation by ~95% using the long myc template and a reticulocyte lysate translation extract.
Reticulocyte Translation Reactions. Translation reactions were performed either with purchased kits (Novagen, Madison, Wis.) or using extract prepared according to published protocols (Jackson and Hunt, Meth. Enzymol. 96:50 (1983)). Reticulocyte-rich blood was obtained from Pel-Freez Biologicals (Rogers, […].). In both cases, the reaction conditions were those recommended for use with Red Nova Lysate (Novagen). Reactions consisted of 100 mM KCl, 0.5 mM MgOAc, 2 mM DTT, 20 mM HEPES pH 7.6, 8 mM creatine phosphate, 25 µM in each amino acid (with the exception of methionine if ^35 S Met was used), and 40% v/v of lysate. Incubation was at 30° C. for 1 hour. Template concentrations depended on the experiment but generally ranged from 50 nM to 1 μM with the exception of 43-P (FIG. 6H) which was 4 μM.

Row | SMILES | decrease of RNA-peptide fusion formation
2 | COc1ccc(C[C@H]2NC[C@H](O)[C@H]2OC(C)=O)cc1 [anisomycin] | ~ 95%
3 | C[C@@H]1C[C@@H]([C@H](O)CC2CC(=O)NC(=O)C2)C(=O)[C@@H](C)C1 [cycloheximide] | ~ 95%
4 | CC[C@H]1CN2CCc3cc(OC)c(OC)cc3[C@@H]2C[C@@H]1C[C@H]1NCCc2cc(OC)c(OC)cc21 [emetine] | ~ 95%
5 | CNCC(=O)NC(CO)C(=O)NC1C(C(N)=O)OC(n2ccc(N)nc2=O)C(O)C1O (stereo not drawn) [gougerotin] | ~ 95%
6 | CSC[S@+]([O-])C[C@H](CO)NC(=O)/C=C/c1c(C)[nH]c(=O)[nH]c1=O [sparsomycin] | ~ 95%
